What all share (format): functional
Assay [1] concerns Human immunodeficiency virus 1. As to the kind of experiment: Antiviral activity against Human immunodeficiency virus 1 clone 38086 harboring K49R, V60I, I135V, Q145M, Q174H, G196E, Q207E, R211K, V245K mutation in reverse transcriptase by phenosense assay relative to wild type.
The subject of assay [2] is Human immunodeficiency virus 1. As to the kind of experiment: Antiviral activity against Human immunodeficiency virus 1 clone 14682 harboring 122E, 135V, Q145V, 200A mutation in reverse transcriptase by phenosense assay relative to wild type.
The subject of assay [3] is Human immunodeficiency virus 1. As to the kind of experiment: Antiviral activity against Human immunodeficiency virus 1 clone Q9016 harboring K122E, Q145M, I202V, F214L mutation in reverse transcriptase by phenosense assay relative to wild type.
The subject of assay [4] is Human immunodeficiency virus 1. As to the kind of experiment: Antiviral activity against Human immunodeficiency virus 1 clone pNL4-3-Q145M harboring K102Q, Q145M, S162C, K277R, I293V mutation in reverse transcriptase by phenosense assay relative to wild type.

As to `Cc1cn([C@H]2C[C@H](N=[N+]=[N-])[C@@H](CO)O2)c(=O)[nH]c1=O` [ZIDOVUDINE], the “fold change (FC)” value in assay [1] was 0.9; in assay [2], 0.8; in assay [3], 1.1; in assay [4], 0.7.
Take `O=C1Nc2ccc(Cl)cc2[C@@](C#CC2CC2)(C(F)(F)F)O1` [EFAVIRENZ]: the “fold change (FC)” value is 1 in assay [1], 1.3 in assay [2], 1.2 in assay [3] and 0.9 in assay [4].
Regarding `O=c1[nH]cnc2c1ncn2[C@H]1CC[C@@H](CO)O1` [DIDANOSINE], the “fold change (FC)” value in assay [1] was 1.5; in assay [2], 1; in assay [3], 0.9; in assay [4] it was 1.1.
With `CC(C)Nc1cccnc1N1CCN(C(=O)c2cc3cc(NS(C)(=O)=O)ccc3[nH]2)CC1` [DELAVIRDINE], the “fold change (FC)” value was determined as 0.4 in assay [1], 0.9 in assay [2], 0.7 in assay [3] and 0.6 in assay [4].
Taken in the same sequence, the figures for `Nc1nc(=O)n([C@@H]2CS[C@H](CO)O2)cc1F` [EMTRICITABINE] were 1.2, 0.5, 1.1 and 0.9.
In the case of `C[C@H](Cn1cnc2c(N)ncnc21)OCP(=O)(O)O` [TENOFOVIR ANHYDROUS], the “fold change (FC)” value in assay [1] was found to be 0.9; in assay [2], 0.9; in assay [3], 1.5; in assay [4] it was 0.9.
For the compound `Nc1nc(NC2CC2)c2ncn([C@H]3C=C[C@@H](CO)C3)c2n1` [ABACAVIR], the “fold change (FC)” value in assay [1] is 0.9; in assay [2], 1.1; in assay [3], 1.2; in assay [4], 1.1.
For `Cc1ccnc2c1NC(=O)c1cccnc1N2C1CC1` [NEVIRAPINE], the “fold change (FC)” value in assay [1] was determined as 1.1; in assay [2], 0.5; in assay [3], 0.7; in assay [4], 1.3.
Taken in the same sequence, the figures for `Cc1cn([C@H]2C=C[C@@H](CO)O2)c(=O)[nH]c1=O` [STAVUDINE] were 1.1, 0.9, 1.1 and 0.9.

These data come from ChEMBL document CHEMBL1649174, “Human immunodeficiency virus type 1 isolates with the reverse transcriptase (RT) mutation Q145M retain nucleoside and nonnucleoside RT inhibitor susceptibility” (2009).
